# How the values were obtained:
# [1] = Partition coefficients between PBS and octan-1-ol; assay type: physicochemical; settings: octan-1-ol/PBS, means ± SE of 3 determinations, read-out: Partition coefficient (converted)
# Procedure: (§1) RP-HPLC was performed using a Gilson 321 pump with a C18 column (Jupiter 300 Å, Phenomenex) with a Widepore C18 guard column (Phenomenex). Samples (1 ml) were injected through a 0.22 μm PVDF filter (Millex, Millipore). HPLC buffer A [0.1% TFA in water] and HPLC buffer B (90% acetonitrile and 0.1% TFA) were used and a gradient was run at 1 ml/min at room temperature as follows: 0-2 min—5% B; 2-17 min—5-100% B; 17-19 min—100% B; 19-22 min—100-5% B. Peaks were detected by absorbance at 220 nm (UV/Vis 151, Gilson) and by fluorescence (excitation and emission wavelengths of 344 and 433 nm; RF-10AXL, Shimadzu). Partition coefficients between PBS and octan-1-ol were determined as previously described.
# [2] = Stability of compounds assessed by RP-HPLC; assay type: physicochemical
# Procedure: as §1
# The syntheses of MitoG, its predicted quinoxaline products upon reaction with methylglyoxal and glyoxal, and their deuterated versions are summarized in FIG. 2. As expected, the spectrum of MitoG was a summation of those of the phenylenediamine, hexyloxyphenylenediamine (HP), and a simple alkylTPP salt.
# The expected products of the reaction of MitoG with methylglyoxal (MQE) and glyoxal (QE) were synthesized and have UV/Vis absorption spectra distinct from that of MitoG (FIG. 3B). Both QE and MQE were fluorescent, while MitoG was not (FIG. 3C). The three compounds were resolved by RP-HPLC (FIG. 3D) although the MQE regioisomers (MQE1, MQE2; FIG. 1B) were not distinguished. Both MQE and QE were stable after one week at 37° C. as assessed by RP-HPLC (data not shown). It was concluded that MitoG is sufficiently stable for biological experiments involving trapping of glyoxal and methylglyoxal within mitochondria in cells and in vivo, and the reaction products MQE and QE were both robustly stable for chemical isolation and subsequent LC-MS/MS analyses.
# [3] = Reaction rate with methylglyoxal (UV/Vis and fluorometric kinetics); settings: 37° C., means±SE, n=3
# Procedure: (A) The reactions between MitoG (100 μM) and 1,2-dicarbonyls (25 μM) at 37° C. were followed from the formation of the quinoxaline products at 345 nm. (B) Fluorimetric detection of the reaction between MitoG and methylglyoxal (40 μM each), and between MitoG and glyoxal (200 μM each) was observed by monitoring the quinoxaline products at excitation and emission wavelengths of 344 and 433 nm, respectively. The changes in fluorescence caused by MQE and QE formation was quantified from calibration curves constructed by plotting fluorescence (excitation and emission wavelengths of 344 and 433 nm, respectively) against known amounts of either quinoxaline and were linear up to at least 20 μM.
# TPP-conjugated compounds were made up as 10 mM stock solutions in DMSO, flushed with argon and stored as aliquots at −20° C. […] The molar extinction coefficients were calculated from the absorbance at maximal absorption (λmax) for the compounds for solutions of known concentration. Reaction rates between MitoG and 1,2-dicarbonyls were determined from the initial linear slope over the first 30 s at the λmax for the formation of the relevant quinoxaline. Fluorescence spectra were obtained in 2.5 ml KCl buffer using a Shimadzu RF-301PC fluorimeter with slit widths of 3 nm. […]
# [4] = Competitive rate experiment for methylglyoxal monitored by 1H NMR; settings: 0.12 mM, DMSO, 25° C.
# C2C12 cells = test: Cell survival, MTS assay, C2C12; assay type: cell-based, mouse; settings: C2C12, 24 h
# Procedure: (A, B) RLM respiring on glutamate/malate at 37° C. were incubated with various concentrations of MitoG for 7 min in an oxygen electrode to measure coupled respiration (A) before ADP was added to measure phosphorylating respiration (B). Data are the percentage of the respiration rates of untreated controls (dashed lines). (C and D) C2C12 cells (C) or BAECs [Bovine Aortic Endothelial Cells; Cell Applications Inc, San Diego, Calif.] (D) were incubated with MitoG for 24 h and cell survival was then determined using the MTS assay. Data are expressed as a percentage of the untreated controls (dashed line). (E-H) BAECs were incubated with MitoG for 2 h at 37° C. and the cellular oxygen consumption rate (OCR) after the sequential additions of oligomycin, FCCP and antimycin A/rotenone were then measured using a Seahorse XF24 analyser. (E) OCR due to ATP synthesis, (F) OCR due to proton leak, (G) reserve capacity and (H) non-mitochondrial oxygen consumption. Results are means±S.E. of three independent experiments. *, P<0.05 or **, P<0.01 relative to untreated controls.
# To assess cell viability, C2C12 cells or BAECs were seeded at a density of 10,000 cells/well and 40,000 cells/well, respectively, in 96-well plates. […] After 2 h absorbance was read at 490 nm in a plate reader (SpectraMax Plus 384, Molecular Devices). […]
smiles,measurement,setting,value
"Nc1ccc(OCCCCCC[P+](c2ccccc2)(c2ccccc2)c2ccccc2)cc1N [MitoG, (6-(3,4-Diaminophenoxy)hexyl)triphenylphosphonium chloride]",logD,[1],0.38
same,"decomposition of dilute solutions, loss by 4 h","[2]; 37° C., 4 h",minimal loss
same,"decomposition of dilute solutions, loss by 24 h","[2]; 37° C., 24 h",significant loss
same,duration of biological experiments for which sufficiently stable,"[2]; dilute solutions, 37° C.",~4 h
same,stability of stock solutions,"[2]; storage at −20° C., RP-HPLC",stable
same,rate constant for reaction with methylglyoxal,[3],19 ± 1 M⁻¹ s⁻¹
same,reactivity relative to o-phenylenediamine for methylglyoxal,[4],~1.8 ×
same,concentration above which cell viability decreased,C2C12 cells,above 10 μM
